Consider 28 molecules from patent US9926304B2, “1-(arylmethyl)quinazoline-2,4(1H,3H)-diones as PARP inhibitors and the use thereof” (Impact Therapeutics, Inc., priority 2011, dated 2018).

The test system of test [1] is Human breast cancer cell line T47D. In words: Cell based caspase-3 activity assay: potentiation of MMS induced apoptosis. The conditions noted are these: Homo sapiens, T47D, 24 h, T47D cells, 11.1 μg/ml MMS, 24 hours, intracellular caspase-3 activity; read-out: EC50 (nM), potentiation of the apoptosis inducing activity of MMS. The method in brief: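 T47D cells were exposed for 24 h to compound plus a minimally apoptotic MMS dose (medium containing 11.1 μg/ml MMS). Lysates were incubated 3 h at 37 °C with (Ac-DEVD)2-R110 caspase-3 substrate (20 μM in added buffer) and read at ex 496/em 520 nm. EC50 came from a sigmoidal fit of RFU versus log concentration.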

For test [2], the system named is SW620 human colorectal cancer cells. In words: MTT based cell viability assay: potentiation of the growth inhibiting activity of MMS. The note with it: Homo sapiens, SW-620, 120 h, read-out: IC50 (nM), potentiation of the growth inhibiting activity of MMS, SW620 cells, 1.7 μg/ml MMS, 5 days (120 hours), MTT.

A word on the EC50: it is the midpoint of the concentration-response curve. For the molecule `O=C(c1ccc(Cn2c(=O)[nH]c(=O)c3ccccc32)cc1)N1CCN(C(=O)C2CCCC2)CC1` [Example 99, 1-(4-(4-(Cyclopentylcarbonyl)piperazine-1-carbonyl)benzyl)quinazoline-2,4(1H,3H)-dione], in test [1], the concentration giving a half-maximal response (EC50) is > 10000 nM. Also, the IC50 in test [2] was > 10000 nM.

Consider `O=C(c1cccc(Cn2c(=O)[nH]c(=O)c3c(Cl)cccc32)c1)N1CCN(C(=O)C2CCCCC2)CC1` [Example 102, 5-Chloro-1-(3-(4-(cyclohexylcarbonyl)piperazine-1-carbonyl)benzyl)quinazoline-2,4(1H,3H)-dione], for which the EC50 in test [1] worked out at 26 nM. The IC50 in test [2] worked out at 87 nM.

Consider `O=C(c1cc(Cn2c(=O)[nH]c(=O)c3c(Cl)cccc32)ccc1F)N1CCN(c2ccccn2)CC1` [Example 106, 5-Chloro-1-(4-fluoro-3-(4-(pyridin-2-yl)piperazine-1-carbonyl)benzyl)quinazoline-2,4(1H,3H)-dione], for which the EC50 in test [1] came to 217 nM. For the same molecule, the IC50 in test [2] was 105 nM.

As for `O=C(c1ccc(F)c(Cn2c(=O)[nH]c(=O)c3c(Cl)cccc32)c1)N1CCN(C(=O)C2CCCCC2)CC1` [Example 108, 5-Chloro-1-(3-(4-(cyclohexylcarbonyl)piperazine-1-carbonyl)-6-fluorobenzyl)quinazoline-2,4(1H,3H)-dione], in test [1], the EC50 came to 68 nM. In addition, the IC50 in test [2] was determined as 78 nM.

Consider `O=C(c1ccc(F)c(Cn2c(=O)[nH]c(=O)c3c(Cl)cccc32)c1)N1CCN(C(=O)C2CCCC2)CC1` [Example 109, 5-Chloro-1-(3-(4-(cyclopentylcarbonyl)piperazine-1-carbonyl)-6-fluorobenzyl)quinazoline-2,4(1H,3H)-dione], for which the half-maximal effective concentration (EC50) in test [1] came out at 23 nM. For the same molecule, the IC50 in test [2] is 48 nM.

Take `O=C(c1ccc(F)c(Cn2c(=O)[nH]c(=O)c3c(Cl)cccc32)c1)N1CCN(c2ncccn2)CC1` [Example 110, 5-Chloro-1-(6-fluoro-3-(4-(pyrimidin-2-yl)piperazine-1-carbonyl)benzyl)quinazoline-2,4(1H,3H)-dione]: the EC50 in test [1] was found to be 32 nM. Moreover, in test [2], the IC50 was 72 nM.

For `O=C(c1cccc(Cn2c(=O)[nH]c(=O)c3cc(Cl)ccc32)c1)N1CCN(c2ccccn2)CC1` [Example 114, 6-Chloro-1-(3-(4-(pyridin-2-yl)piperazine-1-carbonyl)benzyl)quinazoline-2,4(1H,3H)-dione], in test [1], the EC50 is 19 nM. Also, the IC50 in test [2] worked out at 51 nM.

Turning to `O=C(c1cccc(Cn2c(=O)[nH]c(=O)c3cc(Cl)ccc32)c1)N1CCN(C(=O)c2cccs2)CC1` [Example 115, 6-Chloro-1-(3-(4-(thiophene-2-carbonyl)piperazine-1-carbonyl)benzyl)quinazoline-2,4(1H,3H)-dione], in test [1], the EC50 worked out at 23 nM. Moreover, in test [2], the IC50 amounted to 19 nM.

With `O=C(c1cccc(Cn2c(=O)[nH]c(=O)c3cc(Cl)ccc32)c1)N1CCN(C(=O)C2CCC2)CC1` [Example 116, 6-Chloro-1-(3-(4-(cyclobutylcarbonyl)piperazine-1-carbonyl)benzyl)quinazoline-2,4(1H,3H)-dione], the EC50 in test [1] worked out at 13 nM. Besides, the IC50 in test [2] was found to be 48 nM.

Take `O=C(c1cc(Cn2c(=O)[nH]c(=O)c3cc(Cl)ccc32)ccc1F)N1CCN(c2ccccn2)CC1` [Example 120, 6-Chloro-1-(4-fluoro-3-(4-(pyridin-2-yl)piperazine-1-carbonyl)benzyl)quinazoline-2,4(1H,3H)-dione]: in test [1], the EC50 was determined as 8.8 nM. Also, the IC50 in test [2] stood at 42 nM.

For `O=C(c1cccs1)N1CCN(C(=O)c2cc(Cn3c(=O)[nH]c(=O)c4cc(Cl)ccc43)ccc2F)CC1` [Example 121, 6-Chloro-1-(4-fluoro-3-(4-(thiophene-2-carbonyl)piperazine-1-carbonyl)benzyl)quinazoline-2,4(1H,3H)-dione], in test [1], the EC50 came out at 4.9 nM. In addition, the IC50 in test [2] stood at 4.5 nM.

`O=C(c1ccc(F)c(Cn2c(=O)[nH]c(=O)c3cc(Cl)ccc32)c1)N1CCN(C(=O)C2CCCCC2)CC1` [Example 125, 6-Chloro-1-(3-(4-(cyclohexylcarbonyl)piperazine-1-carbonyl)-6-fluorobenzyl)quinazoline-2,4(1H,3H)-dione]: the EC50 in test [1] is 22 nM. For the same molecule, the IC50 in test [2] was 6.7 nM.

For `O=C(c1ccc(F)c(Cn2c(=O)[nH]c(=O)c3cc(Cl)ccc32)c1)N1CCN(C(=O)c2cccs2)CC1` [Example 126, 6-Chloro-1-(6-fluoro-3-(4-(thiophene-2-carbonyl)piperazine-1-carbonyl)benzyl)quinazoline-2,4(1H,3H)-dione], the EC50 in test [1] is 6.5 nM. For the same molecule, the IC50 in test [2] was 18 nM.

On to `O=C(c1cccc(Cn2c(=O)[nH]c(=O)c3c(F)cccc32)c1)N1CCN(C(=O)C2CCCCC2)CC1` [Example 129, 1-(3-(4-(Cyclohexylcarbonyl)piperazine-1-carbonyl)benzyl)-5-fluoroquinazoline-2,4(1H,3H)-dione], for which the EC50 in test [1] was determined as 49 nM. Besides, the IC50 in test [2] stood at 18 nM.

Regarding `O=C(c1cccc(Cn2c(=O)[nH]c(=O)c3c(F)cccc32)c1)N1CCN(c2ccccn2)CC1` [Example 130, 5-Fluoro-1-(3-(4-(pyridin-2-yl)piperazine-1-carbonyl)benzyl)quinazoline-2,4(1H,3H)-dione], the EC50 in test [1] is 87 nM. Besides, in test [2], the IC50 is 15 nM.

As to `O=C(c1cccc(Cn2c(=O)[nH]c(=O)c3c(F)cccc32)c1)N1CCN(C(=O)c2cccs2)CC1` [Example 131, 5-Fluoro-1-(3-(4-(thiophene-2-carbonyl)piperazine-1-carbonyl)benzyl)quinazoline-2,4(1H,3H)-dione], the EC50 in test [1] is 20 nM. Moreover, the IC50 in test [2] was 17 nM.

With `O=C(c1ccccc1)N1CCN(C(=O)c2cc(Cn3c(=O)[nH]c(=O)c4c(F)cccc43)ccc2F)CC1` [Example 137, 1-(3-(4-Benzoylpiperazine-1-carbonyl)-4-fluorobenzyl)-5-fluoroquinazoline-2,4(1H,3H)-dione], in test [1], the EC50 turned out to be 2.1 nM. Further, the IC50 in test [2] stood at 7 nM.

With `O=C(c1cccc(Cn2c(=O)[nH]c(=O)c3cccc(F)c32)c1)N1CCN(C(=O)C2CCCCC2)CC1` [Example 138, 1-(3-(4-(Cyclohexylcarbonyl)piperazine-1-carbonyl)benzyl)-8-fluoroquinazoline-2,4(1H,3H)-dione], in test [1], the EC50 amounted to 281 nM. Also, the IC50 in test [2] is 351 nM.

As for `O=C(c1cccc(Cn2c(=O)[nH]c(=O)c3cc(F)ccc32)c1)N1CCN(C(=O)c2cccs2)CC1` [Example 141, 6-Fluoro-1-(3-(4-(thiophene-2-carbonyl)piperazine-1-carbonyl)benzyl)quinazoline-2,4(1H,3H)-dione], in test [1], the EC50 came out at 13 nM. In addition, the IC50 in test [2] stood at 12 nM.

For the molecule `O=C(c1cccs1)N1CCN(C(=O)c2cc(Cn3c(=O)[nH]c(=O)c4cc(F)ccc43)ccc2F)CC1` [Example 146, 6-Fluoro-1-(4-fluoro-3-(4-(thiophene-2-carbonyl)piperazine-1-carbonyl)benzyl)quinazoline-2,4(1H,3H)-dione], the EC50 in test [1] was 4.1 nM. Moreover, in test [2], the IC50 came to 3.4 nM.

For the molecule `O=C(c1ccc(F)c(Cn2c(=O)[nH]c(=O)c3cc(F)ccc32)c1)N1CCN(C(=O)c2cccs2)CC1` [Example 151, 6-Fluoro-1-(6-fluoro-3-(4-(thiophene-2-carbonyl)piperazine-1-carbonyl)benzyl)quinazoline-2,4(1H,3H)-dione], in test [1], the EC50 was 5.2 nM. In addition, the IC50 in test [2] worked out at 18 nM.

For the molecule `O=C(c1ccc(F)c(Cn2c(=O)[nH]c(=O)c3c(F)cccc32)c1)N1CCN(C(=O)c2cccs2)CC1` [Example 156, 5-Fluoro-1-(6-fluoro-3-(4-(thiophene-2-carbonyl)piperazine-1-carbonyl)benzyl)quinazoline-2,4(1H,3H)-dione], the EC50 in test [1] turned out to be 14 nM. In addition, in test [2], the IC50 was determined as 28 nM.

Consider `O=C(c1ccc(F)c(Cn2c(=O)[nH]c(=O)c3c(F)cccc32)c1)N1CCN(C(=O)C2CCCC2)CC1` [Example 158, 1-(3-(4-(Cyclopentylcarbonyl)piperazine-1-carbonyl)-6-fluorobenzyl)-5-fluoroquinazoline-2,4(1H,3H)-dione], for which, in test [1], the EC50 came out at 8.6 nM. In addition, the IC50 in test [2] was 7.8 nM.

For `Cc1cccc2c1c(=O)[nH]c(=O)n2Cc1cccc(C(=O)N2CCN(c3ncccn3)CC2)c1` [Example 159, 5-Methyl-1-(3-(4-(pyrimidin-2-yl)piperazine-1-carbonyl)benzyl)quinazoline-2,4(1H,3H)-dione], the EC50 in test [1] is 220 nM. The IC50 in test [2] worked out at 648 nM.

With `Cc1cccc2c1c(=O)[nH]c(=O)n2Cc1cccc(C(=O)N2CCN(C(=O)C3CCCC3)CC2)c1` [Example 160, 1-(3-(4-(Cyclopentylcarbonyl)piperazine-1-carbonyl)benzyl)-5-methylquinazoline-2,4(1H,3H)-dione], in test [1], the EC50 turned out to be 261 nM. The IC50 in test [2] is 394 nM.

As for `O=C(c1cccc(Cn2c(=O)[nH]c(=O)c3ccc(Cl)cc32)c1)N1CCN(C(=O)C2CCCC2)CC1` [Example 162, 7-Chloro-1-(3-(4-(cyclopentylcarbonyl)piperazine-1-carbonyl)benzyl)quinazoline-2,4(1H,3H)-dione], the EC50 in test [1] worked out at 495 nM. For the same molecule, the IC50 in test [2] amounted to 1190 nM.

Take `O=C(c1cc(Cn2c(=O)[nH]c(=O)c3c(F)cccc32)ccc1F)N1CCN(C(=O)C2CC2)CC1` [Example 163, 1-(3-(4-(Cyclopropylcarbonyl)piperazine-1-carbonyl)-4-fluorobenzyl)-5-fluoroquinazoline-2,4(1H,3H)-dione]: in test [1], the half-maximal effective concentration (EC50) worked out at 42 nM. In addition, the IC50 in test [2] is 28 nM.

Regarding `O=C(c1ccccc1)N1CCN(C(=O)c2cc(Cn3c(=O)[nH]c(=O)c4cc(Cl)ccc43)ccc2F)CC1` [Example 164, 6-Chloro-1-(3-(4-benzoylpiperazine-1-carbonyl)-4-fluorobenzyl)quinazoline-2,4(1H,3H)-dione], the EC50 in test [1] was determined as 2.1 nM. For the same molecule, the IC50 in test [2] was 6.2 nM.
